The source of these data is US7767714B2, “Method of preventing infectious diseases” (Ajinomoto Co., Inc., priority 2002, dated 2010).

Molecules are shown by their SMILES.

In experiment [1] the test system is influenza virus A/Aichi/2/68 (H3N2). Briefly: Body weight change of mice after influenza virus infection (Example 1). The format is in vivo, BALB/c female mice. The conditions noted are these: mouse; feed with 0.5 wt % L-cystine and/or 0.2 wt % L-theanine for 2 weeks; 10^5 PFU nasally; versus control group on basic feed; FIG. 1. From the text:
4-week-old BALB/c female mice in the growth period were preliminarily raised on a solid feed (CRF-1 solid feed, Charles River Japan, inc.) for one week, then preliminarily raised on a powder feed (CRF-1 powder feed, Charles River Japan, inc.) for one week, and when they reached 6 weeks of age, the feed was changed to a feed containing 20 wt % of casein as a protein source (basic feed: composition: α-corn starch 68.3 wt %, casein 20 wt %, mineral mixture 3.5 wt %, vitamin mixture 1 wt %, cellulose powder 2 wt %, corn-oil 5 wt %, choline bitartrate 0.2 wt %), the same feed supplemented with 0.5 wt % of L-cystine as an amino acid, the same feed supplemented with 0.2 wt % of L-theanine as an amino acid, and the same feed supplemented with 0.5 wt % of L-cystine and 0.2 wt % of L-theanine as amino acids (the present invention), and further raised for 2 weeks. Those continuously raised on the basic feed were used as a control group. Ten mice were used for the test for each group.
At two weeks of the amino acid addition feed administration, 10^5 PFU influenza virus A/Aichi/2/68 (H3N2) was nasally inoculated, the body weight of the mice was measured immediately before virus inoculation and day 5 of infection.
Thus, it was clarified that a concurrent use of L-theanine enhanced the action of L-cystine.

The next experiment has as its system Escherichia coli. The conditions noted are these: Chem. Pharm. Bull. 28, 3549-3554, 1980; cited from earlier work.
The subject of the next experiment is trichomonas. The following applies: extremely high concentration of theanine, in vitro cultivation system; Nature 166, 352, 1950; cited from earlier work.
The subject of the next experiment is Staphylococcus aureus. The conditions noted are these: J. Biol. Chem. 171, 387, 1947; Chem. Pharm. Bull. 28, 3549-3554, 1980; cited from earlier work.

Consider `CCNC(=O)CC[C@H](N)C(=O)O` [L-theanine], for which the “body weight change at day 5 of influenza virus infection” value in experiment [1] is given as “body weight decrease of the same level as that of the control group”. The same measure, in the same setting: the value for `N[C@@H](CSSC[C@H](N)C(=O)O)C(=O)O` [L-cystine] was “suppressed somewhat”. With `CCNC(=O)CC[C@H](N)C(=O)O` [theanine], the “growth of Escherichia coli” value in the experiment with Escherichia coli is “suppression of growth of Staphylococcus aureus and Escherichia coli”. Further, the trichomonas growth entry in the experiment with trichomonas is on record as “suppression of trichomonas growth”. In the experiment with Staphylococcus aureus, the “growth of Staphylococcus aureus” value is recorded as “suppression of growth of Staphylococcus aureus”.
